Data published in patent US9321722B2, “Bis-indolic derivatives, their uses in particular as antibacterials” (UNIVERSITE JOSEPH FOURIER, priority 2011, dated 2016).
≈ marks a conversion by molar mass, not a printed value.

What was measured:
[1] = tested on: S. aureus ATCC 106414 (VISA); assay: MIC microdilution (Table I-1); type: cell-based, Staphylococcus aureus; conditions: Staphylococcus aureus, read after 18 hours, read-out: MIC
Procedure: (§1) The microdilution method recommended by the Clinical and Laboratory Standard Institute [M07-A8, Vol. 29, N^o 2] was used. The activity of indolic compounds was tested against 29 bacterial strains belonging to 17 different species and 12 different genera (Staphylococcus, Streptococcus, Enterococcus, Listeria, Bacillus, Haemophilus, Escherichia, Klebsiella, Enterobacter, Serratia, Pseudomonas, and Acinetobacter). Bacterial inocula were prepared in Mueller Hinton broth (MH2, bioMerieux, Marcy L'Etoile, France), supplemented with 10% sheep blood for fastidious species (i.e., Streptococcus pneumoniae and Haemophilus influenzae). They were dispensed in 96 well microtiter plates (5×10^5 CFU/ml of final inoculum). Indolic compounds were added to the wells as to obtain two-fold serial concentrations (0.50-128 mg/L of final concentrations). Plates were incubated at 37° C. in ambient air, or at 37° C. in 5% CO2 enriched atmosphere for fastidious species. […] Drug-free cultures served as growth controls. Cultures receiving gentamicin, ciprofloxacin or cefotaxime served as positive controls.

S. aureus ATCC 29213 = assay: MIC microdilution (Table I-1); type: cell-based, Staphylococcus aureus; conditions: Staphylococcus aureus, ATCC29213, read after 18 hours, read-out: MIC
Procedure: as §1

[2] = tested on: S. aureus ATCC 33592 (MRSA); assay: MIC microdilution (Table I-1); type: cell-based, Staphylococcus aureus; conditions: Staphylococcus aureus, read after 18 hours, read-out: MIC
Procedure: as §1

S. aureus ATCC 6538 = assay: MIC microdilution (Table I-1); type: cell-based, Staphylococcus aureus; conditions: Staphylococcus aureus, ATCC6538, read after 18 hours, read-out: MIC
Procedure: as §1

S. aureus ATCC 9144 = assay: MIC microdilution (Table I-1); type: cell-based, Staphylococcus aureus; conditions: Staphylococcus aureus, ATCC9144, read after 18 hours, read-out: MIC
Procedure: as §1

S. aureus CIP 103428 = assay: MIC microdilution (Table I-1); type: cell-based, Staphylococcus aureus; conditions: Staphylococcus aureus, CIP103428, read after 18 hours, read-out: MIC
Procedure: as §1

[3] = tested on: S. aureus CIP 65.25 (MRSA); assay: MIC microdilution (Table I-1); type: cell-based, Staphylococcus aureus; conditions: Staphylococcus aureus, read after 18 hours, read-out: MIC
Procedure: as §1

S. aureus CIP 65.6 = assay: MIC microdilution (Table I-1); type: cell-based, Staphylococcus aureus; conditions: Staphylococcus aureus, CIP65, read after 18 hours, read-out: MIC
Procedure: as §1

S. aureus SA-1199B = assay: MIC microdilution (Table I-1); type: cell-based, Staphylococcus aureus; conditions: Staphylococcus aureus, SA1199B, 18 h
Procedure: as §1

[4] = tested on: S. epidermidis ATCC 12228; assay: MIC microdilution (Table I-1); type: cell-based, Staphylococcus epidermidis; conditions: Staphylococcus epidermidis, ATCC12228, read after 18 hours, read-out: MIC
Procedure: as §1

[5] = tested on: S. epidermidis CIP 103627; assay: MIC microdilution (Table I-1); type: cell-based, Staphylococcus epidermidis; conditions: Staphylococcus epidermidis, CIP103627, read after 18 hours, read-out: MIC
Procedure: as §1

S. epidermidis CIP 81.55 = assay: MIC microdilution (Table I-1); type: cell-based, Staphylococcus epidermidis; conditions: Staphylococcus epidermidis, CIP81, read after 18 hours, read-out: MIC
Procedure: as §1

[6] = tested on: Acinetobacter baumanii ATCC 19606; assay: MIC microdilution (Table I-1); type: cell-based; conditions: Acinetobacter baumannii, ATCC19606, read after 18 hours
Procedure: as §1

[7] = tested on: Bacillus subtilis CIP 5262; assay: MIC microdilution (Table I-1); type: cell-based; conditions: CIP5262, read after 18 hours, read-out: MIC
Procedure: as §1

E. faecium CIP 54.32 = assay: MIC microdilution (Table I-1); type: cell-based; conditions: Enterococcus faecium, CIP54, read after 18 hours, read-out: MIC
Procedure: as §1

[8] = tested on: Enterobacter cloacae ATCC 13047; assay: MIC microdilution (Table I-1); type: cell-based; conditions: ATCC13047, read after 18 hours
Procedure: as §1

[9] = tested on: Escherichia coli ATCC 25922; assay: MIC microdilution (Table I-1); type: cell-based; conditions: ATCC25922, read after 18 hours
Procedure: as §1

[10] = tested on: Haemophilus influenzae ATCC 49766; assay: MIC microdilution (Table I-1); type: cell-based; conditions: ATCC49766; Haemophilus influenzae ATCC 49766; read after 18 hours; read-out: MIC
Procedure: as §1

[11] = tested on: Listeria innocua CIP 80.11; assay: MIC microdilution (Table I-1); type: cell-based; conditions: CIP80, read after 18 hours, read-out: MIC
Procedure: as §1

[12] = tested on: Pseudomonas aeruginosa CIP 5933; assay: MIC microdilution (Table I-1); type: cell-based; conditions: CIP5933, read after 18 hours
Procedure: as §1

S. aureus ATCC 25923 = assay: MIC microdilution (Table I-1); type: cell-based; conditions: Staphylococcus aureus, ATCC25923, read after 18 hours
Procedure: as §1

S. mitis CIP 103335 = assay: MIC microdilution (Table I-1); type: cell-based; conditions: Streptococcus mitis, CIP103335, read after 18 hours, read-out: MIC
Procedure: as §1

[13] = tested on: S. pyogenes (group A) CIP 104226; assay: MIC microdilution (Table I-1); type: cell-based; conditions: Streptococcus pyogenes, CIP104226, read after 18 hours, read-out: MIC
Procedure: as §1

[14] = tested on: Serratia marcescens CIP 103551; assay: MIC microdilution (Table I-1); type: cell-based; conditions: CIP103551, read after 18 hours
Procedure: as §1

S. pneumoniae ATCC 6303 = assay: MIC microdilution (Table I-1); type: cell-based, Streptococcus pneumoniae; conditions: Streptococcus pneumoniae, ATCC6303, read after 18 hours, read-out: MIC
Procedure: as §1

[15] = tested on: HCT116 (human colon tumor); assay: In vitro cytotoxicity; type: cell-based; conditions: for inhibition at 10 µM: HCT-116, HCT116, 10^−5 M, read-out: % of cellular growth inhibition; for inhibition at 1 µM: HCT-116, HCT116, 10^−6 M, read-out: % of cellular growth inhibition (converted)
Procedure: (§2) In vitro cytotoxicity was assayed on three cell lines—KB (human mouth carcinoma), MCR5 (human lung fibroblast) and HCT116 (human colon tumor). Results are presented in table III as % of cellular growth inhibition in presence of 10^−5 M and 10^−6 M of the tested bis-indolic derivatives.

[16] = tested on: KB (human mouth carcinoma); assay: In vitro cytotoxicity; type: cell-based; conditions: KB; for inhibition at 10 µM: 10^−5 M, read-out: % of cellular growth inhibition; for inhibition at 1 µM: 10^−6 M, read-out: % of cellular growth inhibition (converted)
Procedure: as §2

[17] = tested on: MRC5 (human lung fibroblast); assay: In vitro cytotoxicity; type: cell-based; conditions: for inhibition at 10 µM: MRC5, 10^−5 M, read-out: % of cellular growth inhibition; for inhibition at 1 µM: MRC5, 10^−6 M, read-out: % of cellular growth inhibition (converted)
Procedure: as §2

SMILES	MIC [1]	MIC (S. aureus ATCC 29213)	MIC [2]	MIC (S. aureus ATCC 6538)	MIC (S. aureus ATCC 9144)	MIC (S. aureus CIP 103428)	MIC [3]	MIC (S. aureus CIP 65.6)	MIC (S. aureus SA-1199B)	MIC [4]	MIC [5]	MIC (S. epidermidis CIP 81.55)	MIC [6]	MIC [8]	MIC [9]	MIC [12]	MIC (S. aureus ATCC 25923)	MIC [14]	inhibition at 10 µM [15]	inhibition at 1 µM [15]	also measured
CC(C)(C)OC(=O)NCC(NC(=O)C(=O)c1c[nH]c2ccccc12)c1c[nH]c2ccccc12 (centres unmarked) [Compound 2, tert-Butyl(2-(2-(1H-indol-3-yl)-2-oxoacetamido)-2-(1H-indol-3-yl)ethyl)carbamate]	> 128 µg/mL	> 128 µg/mL	> 128 µg/mL	> 128 µg/mL	> 128 µg/mL	> 128 µg/mL	> 128 µg/mL	> 128 µg/mL	> 128 µg/mL	> 128 µg/mL	> 128 µg/mL	> 128 µg/mL	> 128 µg/mL	> 128 µg/mL	> 128 µg/mL	> 128 µg/mL	> 128 µg/mL	> 128 µg/mL	96 ± 1%	53%	MIC [7]: > 128 µg/mL; MIC (E. faecium CIP 54.32): > 128 µg/mL; MIC [10]: > 128 µg/mL; MIC [11]: > 128 µg/mL; MIC (S. mitis CIP 103335): > 128 µg/mL; MIC [13]: > 128 µg/mL; MIC (S. pneumoniae ATCC 6303): > 128 µg/mL; inhibition at 10 µM [16]: 97 ± 1%; inhibition at 1 µM [16]: 33%; inhibition at 10 µM [17]: 100 ± 2%; inhibition at 1 µM [17]: 10 ± 0.5%
CC(C)(C)OC(=O)NCC(NC(=O)C(=O)c1c[nH]c2ccc(Br)cc12)c1c[nH]c2ccc(Br)cc12 (centres unmarked) [Compound 4, tert-Butyl(2-(5-bromo-1H-indol-3-yl)-2-(2-(5-bromo-1H-indol-3-yl)-2-oxoacetamido)ethyl) carbamate]	0.8 µg/mL (≈ 1.32 µM)	0.8 µg/mL (≈ 1.32 µM)	0.8 µg/mL (≈ 1.32 µM)	0.8 µg/mL (≈ 1.32 µM)	0.8 µg/mL (≈ 1.32 µM)	1.6 µg/mL (≈ 2.65 µM)	1.6 µg/mL (≈ 2.65 µM)	0.8 µg/mL (≈ 1.32 µM)	1.6 µg/mL (≈ 2.65 µM)	0.8 µg/mL (≈ 1.32 µM)	1.6 µg/mL (≈ 2.65 µM)	1.6 µg/mL (≈ 2.65 µM)	> 128 µg/mL	> 128 µg/mL	> 128 µg/mL	> 128 µg/mL	1.6 µg/mL (≈ 2.65 µM)	> 128 µg/mL	58 ± 4%	0%	inhibition at 10 µM [16]: 76 ± 5%; inhibition at 1 µM [16]: 0%; inhibition at 10 µM [17]: 51 ± 9%; inhibition at 1 µM [17]: 0%
CC(NC(=O)C(=O)c1c[nH]c2ccc(Br)cc12)c1c[nH]c2ccc(Br)cc12 (centres unmarked) [Compound 5, 2-(5-Bromo-1H-indol-3-yl)-N-(1-(5-bromo-1H-indol-3-yl)ethyl)-2-oxoacetamide]	1 µg/mL (≈ 2.04 µM)	1 µg/mL (≈ 2.04 µM)	1 µg/mL (≈ 2.04 µM)	1 µg/mL (≈ 2.04 µM)	1 µg/mL (≈ 2.04 µM)	1 µg/mL (≈ 2.04 µM)	1 µg/mL (≈ 2.04 µM)	2 µg/mL (≈ 4.09 µM)	2 µg/mL (≈ 4.09 µM)	2 µg/mL (≈ 4.09 µM)	2 µg/mL (≈ 4.09 µM)	2 µg/mL (≈ 4.09 µM)	> 128 µg/mL	> 128 µg/mL	> 128 µg/mL	> 128 µg/mL	1 µg/mL (≈ 2.04 µM)	> 128 µg/mL	80 ± 3%	10%	MIC [7]: 64 µg/mL (≈ 131 µM); MIC (E. faecium CIP 54.32): 64 µg/mL (≈ 131 µM); MIC [10]: 32 µg/mL (≈ 65.4 µM); MIC [11]: 64 µg/mL (≈ 131 µM); MIC (S. mitis CIP 103335): 64 µg/mL (≈ 131 µM); MIC [13]: 32 µg/mL (≈ 65.4 µM); MIC (S. pneumoniae ATCC 6303): 32 µg/mL (≈ 65.4 µM); inhibition at 10 µM [16]: 91 ± 3%; inhibition at 1 µM [16]: 0%; inhibition at 10 µM [17]: 85 ± 2%; inhibition at 1 µM [17]: 6%
